In PubChem BioAssay AID1645864 (Buhrlage Lab, Dana-Farber Cancer Institute and Novartis …, 2021):
Activity calls are given as the source filed them.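 The calls were made as follows: active = maximal inhibition of USP17 at or above 30% in the confirmation dose-response, a value not among the printed readouts; inactive = the rest.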

What follows are molecules tested against Ubiquitin carboxyl-terminal hydrolase 17-like protein 5 (Homo sapiens) (UniProt A8MUK1) (assay: ubiquitin-specific protease 17 inhibitors, concentration series, biochemical, verification of primary actives (AID 1645864)). Settings: purified USP17, ubiquitin-rhodamine cleavage fluorescence, 3 h.
Chain of Ubiquitin carboxyl-terminal hydrolase 17-like protein 5 (Homo sapiens) (A8MUK1 whole entry, looked up): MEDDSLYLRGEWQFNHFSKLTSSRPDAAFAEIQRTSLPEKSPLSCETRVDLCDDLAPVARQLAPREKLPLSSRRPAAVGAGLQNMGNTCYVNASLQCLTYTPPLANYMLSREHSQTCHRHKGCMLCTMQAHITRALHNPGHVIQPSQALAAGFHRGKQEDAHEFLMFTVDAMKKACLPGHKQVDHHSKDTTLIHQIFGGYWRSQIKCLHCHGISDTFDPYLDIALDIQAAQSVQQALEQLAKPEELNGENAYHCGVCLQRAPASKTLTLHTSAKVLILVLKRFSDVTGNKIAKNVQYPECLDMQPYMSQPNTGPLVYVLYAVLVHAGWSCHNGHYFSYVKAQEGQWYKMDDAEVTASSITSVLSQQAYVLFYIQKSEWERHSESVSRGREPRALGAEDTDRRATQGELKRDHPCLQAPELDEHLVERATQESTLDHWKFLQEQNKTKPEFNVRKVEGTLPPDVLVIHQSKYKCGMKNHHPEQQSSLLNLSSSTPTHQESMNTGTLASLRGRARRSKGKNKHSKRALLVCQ
In the case of O=C(NCc1ccc(CN2CCCC2)cc1)c1cc2ccccc2[nH]c1=O, the IC50 is reported as 28.4 µM. Work on O=C(c1ccc(Cl)cc1)c1c[nH]cc1-c1c(F)cccc1Cl yielded an IC50 of 36.3 µM. In the case of CC(=O)c1ccc(N2C(=O)N(Cc3cccc([N+](=O)[O-])c3)c3ccccc3S2(=O)=O)cc1, the IC50 is reported as > 50 µM (inactive). With Cc1ccc(C)c(-c2cc3c(=O)n(Cc4noc(CN5CCCCC5)n4)ccn3n2)c1 the IC50 was > 50 µM (inactive). In the case of Cc1cn[nH]c1C1COCCN1C(=O)c1ccc2ncccc2c1 (stereo not given), the IC50 is reported as > 50 µM (inactive). O=C(NCc1ccc(Cl)cc1)c1ccc(N2CCCS2(=O)=O)cc1 was tested, and the IC50 was > 50 µM (inactive). Molecule COc1ccc(C2C(C(=O)Nc3ccccc3OC)=C(C)Nc3nnnn32)cc1Br (stereo not given) has an IC50 of 36.3 µM. C=C1Nc2ccccc2C(=O)N1c1cccc(NC(=O)c2ccc(C)c(C)c2)c1 was tested, and the IC50 was > 50 µM (inactive). COc1ccc(NC(=O)C2Oc3ccc(C)cc3NC2=O)cc1Cl (stereo not given) showed an IC50 of 14.5 µM. COc1cc(Cl)ccc1C(=O)Nc1cccc(-n2cnnn2)c1C was tested, and the IC50 was 4.48 µM. With Cc1cccc(C(=O)N2CCc3cc(-c4nc(NC(=O)CN5CCc6ccccc6C5)sc4C)ccc32)c1 the IC50 was > 50 µM (inactive). Molecule CCCCN1CC(C(=O)Nc2ccc(C(=O)Nc3ccc(Cl)cc3)cc2)CC1=O (stereo not given) has an IC50 of 16.5 µM. Work on Cc1cc(C)n(-c2ccc(C(=O)NCc3ccc(F)cc3)cn2)n1 yielded an IC50 of 33.9 µM. CCn1c(CNc2ccc(Cl)cc2)nnc1SCC(=O)Nc1ccccc1 was tested, and the IC50 was > 50 µM (inactive). Work on Cc1ccc(NC(=O)CCC(=O)Nc2ccc3nc(N4CCCCC4)cc(C)c3c2)c(Br)c1 yielded an IC50 of 49.7 µM. CCCNC(=O)c1ccn(-c2ccc3ccc(-c4cnn(C)c4)cn23)n1 was tested, and the IC50 was > 50 µM (inactive). For O=C(Nc1nc2ccccc2s1)c1ccc2c(c1)C(=O)N(Cc1cccnc1)C2=O, the IC50 was 4.06 µM. In the case of Cc1ccccc1-c1nc(CN(C)S(=O)(=O)c2ccccc2)c(C)o1, the IC50 is reported as > 50 µM (inactive). In the case of O=C(Nc1ccc2c(c1)OCCO2)Nc1nnc(CC(=O)N2CCCCC2)s1, the IC50 is reported as > 50 µM (inactive). For Cc1cc(C(=O)N2CCOCC2)c(C)n1-c1ccc(O)cc1, the IC50 was 23.9 µM. In the case of CCOC(=O)[C@@H]1[C@@H](c2ccccc2)CN2CCN(C(=O)c3cnccn3)C[C@H]12, the IC50 is reported as > 50 µM (inactive). COc1ccc(C2CC(=O)Nc3ccc4ccccc4c32)c(OC)c1OC (stereo not given) gave an IC50 of 40.4 µM. CCOC(=O)C1C(c2ccc(Br)cc2)C2(C(=O)c3ccccc3C2=O)C2C=Cc3ccccc3N12 (stereo not given) was tested, and the IC50 was > 50 µM (inactive). CCC(C(=O)NCc1ccncc1)N(c1cccc(Cl)c1)S(C)(=O)=O (stereo not given) was tested, and the IC50 was > 50 µM (inactive). O=C(Cn1c(=O)n(-c2ccccc2)c(=O)c2ccc(C(=O)NCc3ccc4c(c3)OCO4)cc21)NCCC1=CCCCC1 showed an IC50 of 16.9 µM. With O=C(Cn1cc(C(=O)C2CC2)c2ccccc21)NCc1ccc2c(c1)OCO2 the IC50 was 29.1 µM. CC(C)CC1NC(=O)C2CCCN2C1=O (stereo not given) gave an IC50 of 37.5 µM. COc1cccc(-c2nc3cnccn3c2NCc2ccc3c(c2)OCO3)c1 was tested, and the IC50 was > 50 µM (inactive). O=C(Cn1c(=O)n(Cc2ccccc2)c(=O)c2ncccc21)NCc1ccccc1Cl showed an IC50 of 37.9 µM. In the case of COc1ccc(CCNC(=O)c2noc3c2CCc2sccc2-3)cc1OC, the IC50 is reported as 22 µM. COc1cnc(CSc2ncccn2)cc1OCC(=O)Nc1cc(C)ccc1C was tested, and the IC50 was > 50 µM (inactive). Cc1nc(C(=O)NC2(O)C(=O)c3ccccc3C2=O)cs1 showed an IC50 of 2.06 µM. With COc1ccc2c(c1)c(N1CCCC1=O)c(C(=O)NCc1cccc(OC)c1OC)n2C the IC50 was > 50 µM (inactive). Cc1ccc2nc(NC(=O)C3CCCN3S(=O)(=O)c3ccc4c(c3)OCCO4)sc2c1 (stereo not given) was tested, and the IC50 was > 50 µM (inactive). Cc1cccc(NC(=O)Cn2c(=O)n(Cc3ccc(F)cc3)c(=O)c3sccc32)c1 was tested, and the IC50 was 5.8 µM. Work on COc1cccc2c1NC(=O)C21CCN(C(=O)Nc2cccc(C)c2)CC1 yielded an IC50 of 20.1 µM. Cc1c(-c2nc(-c3ccccc3Cl)no2)nnn1-c1cccc(F)c1 showed an IC50 of 6.66 µM. In the case of CCOc1ccc(-n2c(C)cc(/C=C(\C#N)c3nc4ccccc4[nH]3)c2C)cc1, the IC50 is reported as > 50 µM (inactive). For Cc1ccc(Cl)cc1NC(=O)COC(=O)c1ccc2ccccc2n1, the IC50 was > 50 µM (inactive). Cc1nc(-c2cccc(NC(=O)C3CCN(c4ccccc4)C3=O)c2)no1 (stereo not given) gave an IC50 of 37.2 µM. Molecule CCC1=C(c2ccc(C)cc2)S(=O)(=O)NC1=NCC(=O)NC(C)c1ccccc1 (stereo not given) has an IC50 of 25.2 µM. With CCOCCCn1c(SCC(=O)Nc2ccccc2C(F)(F)F)nc2ccccc2c1=O the IC50 was 20.9 µM. With Cc1ccc(-n2nc(C(=O)Nc3ccc(C)cn3)c3ncn(C)c(=O)c32)cc1 the IC50 was 2.65 µM. O=C(Nc1ccc2c(c1)OCCO2)C1CCN(C(=O)c2ccccc2)CC1 was tested, and the IC50 was > 50 µM (inactive). With COc1ccc(-c2cc(C(=O)N3CCN(c4ccc([N+](=O)[O-])cc4)CC3)[nH]n2)cc1 the IC50 was > 50 µM (inactive). For COc1ccc(CC(=O)Nc2cccc(-c3nc4ncccc4o3)c2)cc1OC, the IC50 was > 50 µM (inactive). CCOc1ccc(S(=O)(=O)Nc2ccc[nH]c2=O)cc1 was tested, and the IC50 was > 50 µM (inactive). CCOc1ccccc1NC(=O)Cn1ccn2nc(-c3ccc(OC)cc3)cc2c1=O was tested, and the IC50 was 6.49 µM. In the case of N#Cc1cc2c(nc1SCC(=O)NCc1ccccc1)CCCC2, the IC50 is reported as > 50 µM (inactive). CCC(C)c1ccc(O[C@@H]2O[C@@H]3COC(c4ccccc4)O[C@H]3[C@H](O)[C@H]2NC(C)=O)cc1 (stereo not given in full) was tested, and the IC50 was 16.6 µM. In the case of COCCn1c(=O)[nH]c2cc(C(=O)NCCNc3ccc([N+](=O)[O-])cc3C#N)ccc2c1=O, the IC50 is reported as 3.57 µM. CC(C)(C)C(=O)NC(c1ccccc1)c1nnc(N2CCOCC2)o1 (stereo not given) was tested, and the IC50 was > 50 µM (inactive). Molecule Cc1c(C)n(-c2ccc(Br)cn2)c2ncnc(NCCCO)c12 has an IC50 of 49.9 µM. For O=C(Nc1ccc2c(c1)OCO2)c1cc(-c2cccnc2)n(-c2ccccc2)n1, the IC50 was 47.6 µM. O=C1CC(O)C(C2=CC(=O)c3c(O)cccc3C2=O)O1 (stereo not given) gave an IC50 of 0.233 µM. In the case of N#C/C(=C/c1sc(N2CCOCC2)nc1-c1ccccc1)c1ccccn1, the IC50 is reported as > 50 µM (inactive). In the case of CC1CCN(c2nnc(-c3nc(C4CC4)no3)c3ccccc23)CC1, the IC50 is reported as > 50 µM (inactive). For Cc1cc(Cl)ccc1NC(=O)c1cc(-c2cccnc2)n[nH]1, the IC50 was > 50 µM (inactive). For Cc1ccc(NC(=O)c2sc3ncn(CC(=O)N4CCN(c5ccccn5)CC4)c(=O)c3c2C)c(Br)c1, the IC50 was 35.1 µM. In the case of O=c1[nH]c2ccccc2cc1CN(Cc1ccco1)S(=O)(=O)c1ccc(F)cc1, the IC50 is reported as > 50 µM (inactive). In the case of CCc1cc2cc3c(cc2nc1SCC(=O)Nc1cccc(C(C)=O)c1)OCO3, the IC50 is reported as 2.29 µM. With COc1cccc(NC(=O)C2CCN(C(=O)c3cc(-c4cccnc4)n[nH]3)CC2)c1 the IC50 was > 50 µM (inactive). For COc1ccc(C(=O)NCCc2nnc3ccc(SCC(=O)NCc4ccc(F)cc4)nn23)cc1, the IC50 was 18.5 µM. COc1cc(OC)c2c(c1)C(=O)C1=C(COC(C)(O)C1)C2=O (stereo not given) showed an IC50 of 3.44 µM. Work on COc1ccccc1-c1nc(-c2cn(-c3ccc(C)cc3)nn2)no1 yielded an IC50 of 28.9 µM. In the case of CC1=C(C)C(N(c2ccccc2)c2ccccc2)N(CCC(C)C)C1=O (stereo not given), the IC50 is reported as 19.2 µM. With COc1ccc(C(=O)CCN2CCOCC2)cc1[N+](=O)[O-] the IC50 was > 50 µM (inactive). For Cc1ccc2nc(CCc3ccc(NS(=O)(=O)c4cccc(Cl)c4C)cc3)[nH]c2c1, the IC50 was > 50 µM (inactive). Work on COc1cc(O)c2c(O)c3c(cc2c1)CC(C)OC3=O (stereo not given) yielded an IC50 of 6.24 µM. COc1ccc(NC(=O)Cn2cc(C(=O)c3ccc(C)cc3)c(=O)c3ccccc32)cc1 was tested, and the IC50 was 1.98 µM. With COc1ccc(C2/C(=C(\O)c3ccccc3)C(=O)C(=O)N2c2nc3ccc(F)cc3s2)cc1 (stereo not given) the IC50 was 17.9 µM. In the case of COc1ccc(NC(=O)C2c3ccccc3C(=O)N(C3CCCC3)C2c2cccs2)cc1OC (stereo not given), the IC50 is reported as 47.1 µM. CC1Oc2ccccc2C(=O)N(Cc2ccc([N+](=O)[O-])cc2)C1=O (stereo not given) was tested, and the IC50 was > 50 µM (inactive). With O=C(c1cc(-c2ccc(Cl)cc2)n[nH]1)N1CCN(C(=O)c2ccco2)CC1 the IC50 was 32.2 µM. O=[N+]([O-])c1ccc(N2CCN(c3ncnc4c3[nH]c3ccc(F)cc34)CC2)cc1 gave an IC50 of 0.247 µM. O=C1C[C@@H](O)[C@H](O)[C@@]23O[C@@]12C1(Oc2cccc4cccc(c24)O1)[C@@H]1O[C@@H]1[C@@H]3O was tested, and the IC50 was 22 µM. For CC1(C)OC2=C(C(=O)c3cc(O)cc(O)c3C2=O)c2cc(CO)c(O)cc21, the IC50 was 5.7 µM. Work on Cc1ccc(C)c(S(=O)(=O)N2CCC3(CC2)NC(=O)c2ccccc2N3)c1 yielded an IC50 of 46.1 µM. COc1ccc(NC(=O)Nc2cccc(-c3nnc(-c4ccccc4)o3)c2)cc1OC gave an IC50 of 10.9 µM. Work on Cc1ccc(C)c(NC(=O)CCc2nc(CSc3nc4ccccc4o3)no2)c1 yielded an IC50 of 33.9 µM. For Cc1cc(C#N)c2c(C)ccc(C(C)C)cc1-2, the IC50 was > 50 µM (inactive). Molecule CSc1ccccc1C(=O)Nc1sc2c(c1C(N)=O)CCC(C)C2 (stereo not given) has an IC50 of 2.35 µM. O=C(CSc1nnnn1-c1ccccc1)Nc1ccccc1 showed an IC50 of 36.8 µM. NC(=O)c1nc(-c2cccnc2)nc2c1[nH]c(=O)n2-c1ccc2c(c1)OCO2 showed an IC50 of 4.01 µM. N#Cc1ccc(NC(=O)COC(=O)c2ccc3ccccc3n2)cc1 was tested, and the IC50 was > 50 µM (inactive). In the case of CC(C)(C)C(=O)C1C2C(=O)N(c3ccc4c(c3)OCO4)C(=O)C2C2c3ccccc3C=CN12 (stereo not given), the IC50 is reported as > 50 µM (inactive). With CS(=O)(=O)N1CCc2cc(C(=O)Nc3ccc(Cc4ccncc4)cc3)ccc21 the IC50 was > 50 µM (inactive). For c1ccc(CN2CCN(c3nc4ccccc4n4nnnc34)CC2)cc1, the IC50 was > 50 µM (inactive). For O=C(Nc1ccc(Oc2cccc3cccnc23)cc1)c1cccs1, the IC50 was > 50 µM (inactive). Work on O=C(CCSc1ccc(Cl)cc1)c1cccs1 yielded an IC50 of 17.1 µM. N#Cc1cccc(S(=O)(=O)N2CCc3nc4ccccc4n3CC2)c1 gave an IC50 of 19.5 µM. In the case of CCCCNC(=O)c1cc2cccnc2n(Cc2ccccc2)c1=O, the IC50 is reported as > 50 µM (inactive). Cc1ccccc1Cn1ccc(NC(=O)c2noc(C)c2[N+](=O)[O-])n1 was tested, and the IC50 was > 50 µM (inactive). For COc1ccc(C(C)=O)cc1CC(=O)Nc1nc2ccccc2[nH]1, the IC50 was > 50 µM (inactive). In the case of COc1ccccc1/C=C/C(=O)Nc1nc2n(n1)C(c1ccc(Cl)cc1)CC(=O)N2 (stereo not given), the IC50 is reported as > 50 µM (inactive). Molecule CCc1ccc(NC(=O)Cc2nnc(-c3ccc4ncccc4c3)o2)cc1 has an IC50 of 35.5 µM. O=C(CN1C(=O)C2CCCC2=Nc2ccccc21)Nc1ccc(F)cc1F (stereo not given) gave an IC50 of 32.2 µM. COc1ccccc1NC(=O)c1nn(-c2cccc(F)c2)c(OC)cc1=O showed an IC50 of 44.1 µM. For CCCC(=O)c1c[nH]c(C(=O)NCc2ccc(F)cc2)c1, the IC50 was 14.5 µM. With Cc1cc(C)c(NC(=O)Cn2c(=O)n(CCC(=O)NCc3ccc4c(c3)OCO4)c(=O)c3sccc32)c(C)c1 the IC50 was 3.02 µM.
